Here are results for twelve compounds from ChEMBL document CHEMBL1158410, “Synthesis and evaluation of 1-(quinoliloxypropyl)-4-aryl piperazines for atypical antipsychotic effect” (Bioorg Med Chem Lett, 2009).

Activity calls are given as the source filed them. No cut-off for these calls is given here.

Data set [1] concerns Mus musculus. Kind of data set: Antipsychotic activity in albino lyka mouse assessed as reversal of apomorphine-induced stereotype response at 1 mg/kg, ip administered 10 mins prior to apomorphine challenge measured after 10 to 30 mins. Format: functional, organism-based. More on the design: dose 1 mg/kg.
Data set [2] has as its system Mus musculus. The data set can be described thus: Antipsychotic activity in albino lyka mouse assessed as reduction in apomorphine-induced mesh climbing response at 1 mg/kg, ip administered 10 mins prior to apomorphine challenge measured after 10 to 30 mins. Format: functional, organism-based. Set-up: dose 1 mg/kg.
Data set [3] can be described thus: Lipophilicity, log P of the compound. Type of data set: physicochemical. The following applies: octanol/water.
In data set [4] the test system is Mus musculus. The data set can be described thus: Antipsychotic activity in albino lyka mouse assessed as reduction in apomorphine-induced mesh climbing response at 120 mg/kg, ip administered 10 mins prior to apomorphine challenge measured after 10 to 30 mins. More on the design: dose 120 mg/kg. Format: functional, organism-based.
Data set [5] relates to Mus musculus. The data set can be described thus: Antipsychotic activity in albino lyka mouse assessed as reversal of apomorphine-induced stereotype response at 120 mg/kg, ip administered 10 mins prior to apomorphine challenge measured after 10 to 30 mins. Type of data set: functional, organism-based. Set-up: dose 120 mg/kg.
In data set [6] the test system is Mus musculus. The data set can be described thus: Antipsychotic activity in albino lyka mouse assessed as reduction in apomorphine-induced mesh climbing response at 25 mg/kg, ip administered 10 mins prior to apomorphine challenge measured after 10 to 30 mins. Type of data set: functional, organism-based. Set-up: dose 25 mg/kg.
Data set [7] relates to Mus musculus. The data set can be described thus: Antipsychotic activity in albino lyka mouse assessed as reversal of apomorphine-induced stereotype response at 25 mg/kg, ip administered 10 mins prior to apomorphine challenge measured after 10 to 30 mins. Format: functional, organism-based. Set-up: dose 25 mg/kg.
In data set [8] the test system is Mus musculus. The data set can be described thus: Antipsychotic activity in albino lyka mouse assessed as reduction in apomorphine-induced mesh climbing response at 20 mg/kg, ip administered 10 mins prior to apomorphine challenge measured after 10 to 30 mins. Format: functional, organism-based. More on the design: dose 20 mg/kg.
Data set [9] relates to Mus musculus. The data set can be described thus: Antipsychotic activity in albino lyka mouse assessed as reversal of apomorphine-induced stereotype response at 20 mg/kg, ip administered 10 mins prior to apomorphine challenge measured after 10 to 30 mins. Type of data set: functional, organism-based. Set-up: dose 20 mg/kg.
Data set [10] relates to Mus musculus. Kind of data set: Antipsychotic activity in albino lyka mouse assessed as reversal of apomorphine-induced stereotype response at 5 mg/kg, ip administered 10 mins prior to apomorphine challenge measured after 10 to 30 mins. Set-up: dose 5 mg/kg. Type of data set: functional, organism-based.
The test system of data set [11] is Mus musculus. The data set can be described thus: Antipsychotic activity in albino lyka mouse assessed as reduction in apomorphine-induced mesh climbing response at 5 mg/kg, ip administered 10 mins prior to apomorphine challenge measured after 10 to 30 mins. More on the design: dose 5 mg/kg. Type of data set: functional, organism-based.
The test system of data set [12] is Mus musculus. The data set can be described thus: Antipsychotic activity in albino lyka mouse assessed as reversal of apomorphine-induced stereotype response at 80 mg/kg, ip administered 10 mins prior to apomorphine challenge measured after 10 to 30 mins. Type of data set: functional, organism-based. Set-up: dose 80 mg/kg.
The test system of data set [13] is Mus musculus. Kind of data set: Antipsychotic activity in albino lyka mouse assessed as reduction in apomorphine-induced mesh climbing response at 80 mg/kg, ip administered 10 mins prior to apomorphine challenge measured after 10 to 30 mins. Format: functional, organism-based. Set-up: dose 80 mg/kg.

As to `O=C(c1ccc(Cl)cc1)N1CCN(CCCOc2ccc3ncccc3c2)CC1`, in the data set with Mus musculus [1], the result was Active. Further, the result in the data set on Mus musculus [2] was inactive. The compound also had a logP in data set [3] of 3.58.
`c1ccc(CN2CCN(CCCOc3cccc4cccnc34)CC2)cc1`: the result in the data set with Mus musculus [4] was Active. In data set [3], this compound returned a logP of 3.58. Also, the outcome in the data set with Mus musculus [5] was inactive.
In [3], `O=C(c1ccc(F)cc1)C1CCN(CCn2c(=O)[nH]c3ccccc3c2=O)CC1` [KETANSERIN] had a logP of 2.37.
Compound `CN1CCN(C2=Nc3cc(Cl)ccc3Nc3ccccc32)CC1` [CLOZAPINE] displayed a logP in data set [3] of 3.71.
Same read-out and setting: then `O=C1Cc2cc(CCN3CCN(c4nsc5ccccc45)CC3)c(Cl)cc2N1` [ZIPRASIDONE], with 4.67.
Consider `c1ccc(CN2CCN(CCCOc3ccc4ncccc4c3)CC2)cc1`, for which the outcome in the data set with Mus musculus [6] and in the data set with Mus musculus [7] was inactive. The same compound yielded a logP in data set [3] of 3.58.
On to `O=C(c1ccccc1)N1CCN(CCCOc2cccc3cccnc23)CC1`, for which the outcome in the data set with Mus musculus [8] was inactive. For the same compound, the result with Mus musculus [9] was Active. Besides, the logP in data set [3] amounted to 3.02.
On to `O=C(c1ccccc1)N1CCN(CCCOc2ccc3ncccc3c2)CC1`, for which the outcome in the data set with Mus musculus [6] was inactive. In addition, the result with Mus musculus [7] was Active. Moreover, the log partition coefficient (logP) in data set [3] amounted to 3.02.
With `O=C(c1ccc(Cl)cc1)N1CCN(CCCOc2cccc3cccnc23)CC1`, the result with Mus musculus [10] was Active. Besides, in the data set on Mus musculus [11], the outcome was inactive. The same compound registered a logP in data set [3] of 3.58.
In data set [3], `Cc1nc2n(c(=O)c1CCN1CCC(c3noc4cc(F)ccc34)CC1)CCCC2` [RISPERIDONE] had a logP of 2.1.
As to `Clc1ccc(CN2CCN(CCCOc3cccc4cccnc34)CC2)cc1`, the outcome in the data set with Mus musculus [12] was inactive. In the data set with Mus musculus [13], the result was Active. In data set [3], this compound yielded a logP of 4.14.
Turning to `Clc1ccc(CN2CCN(CCCOc3ccc4ncccc4c3)CC2)cc1`, the outcome in the data set with Mus musculus [10] and in the data set on Mus musculus [11] was inactive. In data set [3], this compound yielded a logP of 4.14.
